Data from ChEMBL document CHEMBL1133805, “Discovery and initial structure-activity relationships of trisubstituted ureas as thrombin receptor (PAR-1) antagonists” (Bioorg Med Chem Lett, 2001).
Where a SMILES comes first, the peptide text is derived from it. [ ]: non-standard residue; d: D form. The star is where a group is joined. Phe(4-guanidino) = N=C(N)Nc1ccc(C[C@H](N)C(=O)O)cc1; Phe(4-F) = N[C@@H](Cc1ccc(F)cc1)C(=O)O; Orn = NCCC[C@H](N)C(=O)O; X1 = O=C(/C=C/c1ccccc1)*; Propionyl = CCC(=O)*

Molecular target: not listed separately
Experiment: Inhibitory activity against thrombin's catalytic activity was determined
Format: functional

Ki [µM]	Structure (SMILES)
> 10	CC[C@@H](C)N(C[C@@H](O)c1ccc(Cl)c(Cl)c1)C(=O)Nc1ccc(CNC(=O)C(C)(C)C)cc1

Species: Homo sapiens
Experiment: Inhibitory concentration against TRAP-stimulated secretion of 3H serotonin from human platelets
Format: functional

IC50 [nM]	Structure (SMILES)
1000	CCCC(C)N(C[C@@H](O)c1ccc(Cl)c(Cl)c1)C(=O)Nc1ccc(CNC(=O)C(C)(C)C)cc1 (stereo not given in full)
1000	CC(C)(C)C(=O)NCc1ccc(NC(=O)N(CC(O)c2ccc(Br)c(Br)c2)C2CCC2)cc1 (stereo not given)
6000	CC(C)(C)C(=O)NCc1ccc(NC(=O)N(CC(O)c2ccc(C#N)cc2)C2CCC2)cc1 (stereo not given)
> 10000	CC(C)(C)C(=O)NCc1ccc(NC(=O)N(CC(O)c2cccc(Cl)c2Cl)C2CCC2)cc1 (stereo not given)
230	CC(C)(C)C(=O)NCc1ccc(NC(=O)N(CC(O)c2ccc(Cl)c(Cl)c2)C2CCC2)cc1 (stereo not given)
10000	CC(C)(C)C(=O)NCc1ccc(NC(=O)N(CC(O)c2ccc(Cl)cc2Cl)C2CCC2)cc1 (stereo not given)
> 10000	CC(C)(C)C(=O)NCc1ccc(NC(=O)N(C[C@@H](O)c2ccc(Cl)c(Cl)c2)C2CCCC2)cc1
1100	CCCN(C[C@@H](O)c1ccc(Cl)c(Cl)c1)C(=O)Nc1ccc(CNC(=O)C(C)(C)C)cc1
40000	CN(C[C@@H](O)c1ccc(Cl)c(Cl)c1)C(=O)Nc1ccc(CNC(=O)C(C)(C)C)cc1
> 10000	CC(C)(C)C(=O)NCc1ccc(NC(=O)N(CC(O)c2cc(Cl)cc(Cl)c2)C2CCC2)cc1 (stereo not given)
700	CC(C)N(C[C@@H](O)c1ccc(Cl)c(Cl)c1)C(=O)Nc1ccc(CNC(=O)C(C)(C)C)cc1
1700	CC(C)(C)C(=O)NCc1ccc(NC(=O)N(C[C@@H](O)c2ccc(Cl)c(Cl)c2)C(C)(C)C)cc1
400	CC[C@H](C)N(C[C@@H](O)c1ccc(Cl)c(Cl)c1)C(=O)Nc1ccc(CNC(=O)C(C)(C)C)cc1
3800	CCN(C[C@@H](O)c1ccc(Cl)c(Cl)c1)C(=O)Nc1ccc(CNC(=O)C(C)(C)C)cc1
> 10000	CCCCN(C[C@@H](O)c1ccc(Cl)c(Cl)c1)C(=O)Nc1ccc(CNC(=O)C(C)(C)C)cc1
> 10000	CC(C)CN(C[C@@H](O)c1ccc(Cl)c(Cl)c1)C(=O)Nc1ccc(CNC(=O)C(C)(C)C)cc1
10000	CC(C)(C)C(=O)NCc1ccc(NC(=O)N(CC(O)c2ccc(F)c(F)c2)C2CCC2)cc1 (stereo not given)
230	CC[C@@H](C)N(C[C@@H](O)c1ccc(Cl)c(Cl)c1)C(=O)Nc1ccc(CNC(=O)C(C)(C)C)cc1
> 10000	CC(C)(C)C(=O)NCc1ccc(NC(=O)N(CC(O)c2cccc(C#N)c2)C2CCC2)cc1 (stereo not given)
6700	CC(C)(C)C(=O)NCc1ccc(NC(=O)N(C[C@@H](O)c2ccc(Cl)c(Cl)c2)C2CC2)cc1
> 10000	Cc1ccc(C(O)CN(C(=O)Nc2ccc(CNC(=O)C(C)(C)C)cc2)C2CCC2)cc1C (stereo not given)

Further lines, the molecule ahead of its results:

Structure (SMILES)	IC50 [nM]
C[C@@H]1CC[C@@H]([C@@H](O)c2ccc(Cl)c(Cl)c2)N1C(=O)Nc1ccc(CNC(=O)C(C)(C)C)cc1	> 10000
O=C1N(C[C@@H](O)c2ccc(Cl)c(Cl)c2)CCN1c1ccccc1	> 100000
CCC(=O)NCCC[C@H](NC(=O)[C@H](CCCN=C(N)N)NC(=O)[C@H](CC(C)C)NC(=O)[C@H](Cc1ccc(NC(=N)N)cc1)NC(=O)[C@H](Cc1ccc(F)cc1)NC(=O)/C=C/c1ccccc1)C(N)=O (X1-[Phe(4-F)][Phe(4-guanidino)]LR[Orn](Propionyl)-NH2)	120
CC(C)N(C[C@@H](O)c1ccc(Cl)c(Cl)c1)C(=O)Nc1ccc(NC(=O)c2ccc(S(N)(=O)=O)cc2)cc1	1000
CC(C)(C)C(=O)NCc1ccc(NC(=O)N2CCC[C@H]2[C@@H](O)c2ccc(Cl)c(Cl)c2)cc1	1500
CC(C)N(C[C@@H](O)c1ccc(Cl)c(Cl)c1)C(=O)Nc1ccc(CNC(=O)c2cccnc2)cc1	700
CC(C)(C)C(=O)NCc1ccc(NC(=O)N2CCCC[C@H]2[C@H](O)c2ccc(Cl)c(Cl)c2)cc1	> 10000
CC(C)(C)C(=O)NCc1ccc(NC(=O)N2CSC[C@@H]2[C@@H](O)c2ccc(Cl)c(Cl)c2)cc1	2500
CC(C)(C)C(=O)NCc1ccc(NC(=O)N2CCC[C@H]2[C@H](O)c2ccc(Cl)c(Cl)c2)cc1	> 10000
CC(C)C[C@H](NC(=O)[C@H](Cc1ccc(NC(=N)N)cc1)NC(=O)[C@H](Cc1ccc(F)cc1)NC(=O)/C=C/c1ccccc1)C(=O)N[C@@H](CCCN=C(N)N)C(=O)N[C@@H](CCCN)C(N)=O (X1-[Phe(4-F)][Phe(4-guanidino)]LR[Orn]-NH2)	54
CC(C)(C)C(=O)NCc1ccc(NC(=O)NC[C@@H](O)c2ccc(Cl)c(Cl)c2)cc1	> 40000
CC(C)N(C[C@@H](O)c1ccc(Cl)c(Cl)c1)C(=O)Nc1ccc(CNC(=O)c2ccc(S(N)(=O)=O)cc2)cc1	850
C[C@H]1CC[C@@H]([C@@H](O)c2ccc(Cl)c(Cl)c2)N1C(=O)Nc1ccc(CNC(=O)C(C)(C)C)cc1	400
CC(C)(C)C(=O)NCc1ccc(NC(=O)N2CCCC(O)(c3ccc(Cl)c(Cl)c3)C2)cc1 (stereo not given)	500
CC(C)N(C[C@@H](O)c1ccc(Cl)c(Cl)c1)C(=O)Nc1ccc(NC(=O)C(C)(C)C)cc1	> 10000
CC(C)N(C[C@@H](O)c1ccc(Cl)c(Cl)c1)C(=O)Nc1ccc(CCNC(=O)C(C)(C)C)cc1	> 10000
CC(C)(C)C(=O)NCc1ccc(NC(=O)N2CCC(O)(c3ccc(Cl)c(Cl)c3)C2)cc1 (stereo not given)	> 40000
CC(C)N(C[C@@H](O)c1ccc(Cl)c(Cl)c1)C(=O)Nc1ccc(CNC(=O)C(C)(C)N)cc1	1000

Structure (SMILES)	IC50 [nM]
CC(C)N(C[C@@H](O)c1ccc(Cl)c(Cl)c1)C(=O)Nc1ccc(CCNC(=O)c2cccc3[nH]cnc23)cc1	360
CC(C)(C)C(=O)NCc1ccc(NC(=O)N2CCC[C@@H]2[C@@H](O)c2ccc(Cl)c(Cl)c2)cc1	> 10000
CC(C)(C)C(=O)NCc1ccc(NC(=O)N2C[S+]([O-])C[C@@H]2[C@@H](O)c2ccc(Cl)c(Cl)c2)cc1 (stereo not given in full)	> 10000
CC(C)N1CC(c2ccc(Cl)c(Cl)c2)CN(c2ccc(CNC(=O)C(C)(C)C)cc2)C1=O (stereo not given)	> 10000
CC(C)N(C[C@@H](O)c1ccc(Cl)c(Cl)c1)C(=O)Nc1ccc(CNC(=O)c2cccc3[nH]cnc23)cc1	450
CC[C@H]1CC[C@@H]([C@@H](O)c2ccc(Cl)c(Cl)c2)N1C(=O)Nc1ccc(CNC(=O)C(C)(C)C)cc1	700
CC(C)N(C[C@@H](O)c1ccc(Cl)c(Cl)c1)C(=O)Nc1ccc(CNC(=O)Nc2ccc(CNC(N)=O)cc2)cc1	600
CC(C)N(C[C@@H](O)c1ccc(Cl)c(Cl)c1)C(=O)Nc1ccc(CNC(=O)c2ccc(F)cc2F)cc1	900
CC(C)N(C[C@@H](O)c1ccc(Cl)c(Cl)c1)C(=O)Nc1ccc(NC(=O)c2ccc(F)cc2F)cc1	> 10000
CC(C)N(C[C@@H](O)c1ccc(Cl)c(Cl)c1)C(=O)Nc1ccc(CCNC(=O)c2cccnc2)cc1	1400
CC(C)(C)C(=O)NCc1ccc(NC(=O)N(C[C@@H](O)c2ccc(Cl)c(Cl)c2)c2ccccc2)cc1	> 10000
CC(C)N(C[C@@H](O)c1ccc(Cl)c(Cl)c1)C(=O)Nc1ccc(CCNC(=O)c2ccc(F)cc2F)cc1	> 10000
CC(C)N(C[C@@H](O)c1ccc(Cl)c(Cl)c1)C(=O)Nc1ccc(CCNC(=O)c2ccc(S(N)(=O)=O)cc2)cc1	700
CC(C)N(C[C@@H](O)c1ccc(Cl)c(Cl)c1)C(=O)Nc1ccc(NC(=O)c2cccc3[nH]cnc23)cc1	1000
CC(C)(C)C(=O)NCc1ccc(NC(=O)N2CCC[C@@H]2[C@H](O)c2ccc(Cl)c(Cl)c2)cc1	> 10000
CC(C)(C)C(=O)NCc1ccc(NC(=O)N2CCCC[C@H]2[C@@H](O)c2ccc(Cl)c(Cl)c2)cc1	4300
CC(C)(C)C(=O)NCc1ccc(NC(=O)N2CCOC(c3ccc(Cl)c(Cl)c3)C2)cc1 (stereo not given)	> 40000

Molecular target: T1, Proteinase-activated receptor 1 (Homo sapiens, UniProt P25116)
T1 sequence (P25116 whole entry): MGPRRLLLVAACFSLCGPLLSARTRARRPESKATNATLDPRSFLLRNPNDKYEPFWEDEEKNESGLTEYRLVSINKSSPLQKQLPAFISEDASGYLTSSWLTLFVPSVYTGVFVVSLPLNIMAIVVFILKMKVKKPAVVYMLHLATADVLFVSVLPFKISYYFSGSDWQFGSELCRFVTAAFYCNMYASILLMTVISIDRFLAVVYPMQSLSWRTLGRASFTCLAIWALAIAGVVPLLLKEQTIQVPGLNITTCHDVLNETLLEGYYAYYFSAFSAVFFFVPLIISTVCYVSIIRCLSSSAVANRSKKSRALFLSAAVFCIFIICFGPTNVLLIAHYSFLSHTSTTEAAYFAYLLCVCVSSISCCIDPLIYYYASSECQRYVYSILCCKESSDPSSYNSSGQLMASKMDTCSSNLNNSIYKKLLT
Experiment: Binding affinity against platelet thrombin receptor

IC50 [nM]	Structure (SMILES)
6600	CN(C[C@@H](O)c1ccc(Cl)c(Cl)c1)C(=O)Nc1ccc(CNC(=O)C(C)(C)C)cc1
700	CC(C)N(C[C@@H](O)c1ccc(Cl)c(Cl)c1)C(=O)Nc1ccc(CNC(=O)C(C)(C)C)cc1
120	CC[C@@H](C)N(C[C@@H](O)c1ccc(Cl)c(Cl)c1)C(=O)Nc1ccc(CNC(=O)C(C)(C)C)cc1
2100	CC(C)(C)C(=O)NCc1ccc(NC(=O)N(C[C@@H](O)c2ccc(Cl)c(Cl)c2)C2CC2)cc1

The remaining lines, values behind:

Structure (SMILES)	IC50 [nM]
CC(C)(C)C(=O)NCc1ccc(NC(=O)N2CCC[C@H]2[C@@H](O)c2ccc(Cl)c(Cl)c2)cc1	1100
CC(C)N(C[C@@H](O)c1ccc(Cl)c(Cl)c1)C(=O)Nc1ccc(CNC(=O)c2ccc(S(N)(=O)=O)cc2)cc1	1200
C[C@H]1CC[C@@H]([C@@H](O)c2ccc(Cl)c(Cl)c2)N1C(=O)Nc1ccc(CNC(=O)C(C)(C)C)cc1	1000

Test system: not listed separately
Experiment: Inhibitory activity against ADP or collagen induced platelet activation
Format: functional

IC50 [µM]	Structure (SMILES)
> 10	CC[C@@H](C)N(C[C@@H](O)c1ccc(Cl)c(Cl)c1)C(=O)Nc1ccc(CNC(=O)C(C)(C)C)cc1
